These are literature values, as cited in PMC4744679 (Drug Testing and Analysis, 2015).

The conditions of series [1]: murine, single intraperitoneal injection.
For series [2] the following is noted: for Primary accumulation: inner ear, brain, kidney and liver examined.
For series [3] the following is noted: mature teratoma.
The conditions of series [4]: 0.5–3 h of observation.
The conditions of series [5]: rats, orally administered, 24 and 48 h after injection.

As for `N.N.[Cl][Pt][Cl]` [cisplatin, cis‐dichlorodiammineplatinum (II)], the Main deposition entry was “kidney”. In series [1], the Main platinum accumulation result was “kidneys and, secondly, in liver”. The Primary accumulation entry in series [2] is “kidney and liver”. In series [3], the “Time after administration at which platinum is detected in the tissue” value is recorded as “more than 7 years”.
With `CC(C)c1cc(C(=O)[O-])c([O-])c(C(C)C)c1.NC1CCCCC1N.[Pt+2]` [Saliplatin, cis‐3,5‐diisopropylsalylic cyclohexano‐diaminoplatinum (II)], in series [4], the Primary accumulation sites result is “spleen, liver, and kidneys”.
In the case of `CC(=O)[O-].CC(=O)[O-].N.NC12CC3CC(CC(C3)C1)C2.[Cl-].[Cl-].[Pt+4]` [(OC‐6‐43)‐bis (acetato) (1‐adamantylamine) amminedichloroplatinum (IV)], in series [5], the Main accumulation organs result was “liver, kidneys and spleen”.
`N.N.O=C([O-])C1(C(=O)[O-])CCC1.[Pt+2]` [carboplatin, cis‐diammine(1,1‐cyclobutanedicarboxylato)platinum (II)]: the Main deposition result is reported as “kidney”. In series [2], the “Distribution into brain and inner ear” value was “much less distributed into brain and inner ear”; the Primary accumulation result is “kidney and liver”.
